Experiment in all cases: relative viability (nuclei count vs DMSO), 5 days (fraction); higher = more cells survive
Compound in the assay “ALW-II-49-7 + Pemetrexed”: Cc1ccc(C(=O)Nc2cccc(C(F)(F)F)c2)cc1Nc1cncc(C(N)=O)c1 [ALW-II-49-7] + Nc1nc2[nH]cc(CCc3ccc(C(=O)N[C@@H](CCC(=O)O)C(=O)O)cc3)c2c(=O)[nH]1 [Pemetrexed] (partner 0.2 µM)
An outline of the steps:
(§1)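 Cells from lung cancer lines were seeded into 1536-well plates and, one day later, dosed by pin tool. Treatments were either a single drug or a fixed dose of an anchor drug with five library-drug doses (not always all listed) in √10 steps. After 5 days, nuclei were stained in a one-step fixation (final 0.05% Triton X-100, 1% formaldehyde, 1 ug/ml Hoechst) and counted on 4× images, and relative viability is the treated-to-vehicle nuclei ratio, as the median of duplicate plates.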

Compound in the assay “ALW-II-49-7 + Lapatinib”: Cc1ccc(C(=O)Nc2cccc(C(F)(F)F)c2)cc1Nc1cncc(C(N)=O)c1 [ALW-II-49-7] + CS(=O)(=O)CCNCc1ccc(-c2ccc3ncnc(Nc4ccc(OCc5cccc(F)c5)c(Cl)c4)c3c2)o1 [Lapatinib] (partner 2 µM)
An outline of the steps: as §1

Compound in the assay “XMD13-2 + Bortezomib”: C1CC1C(=O)NC2=NNC3=C2C=CC(=C3)C4=CC(=CC=C4)C(=O)NC5CC5 [XMD13-2] + CC(C)C[C@H](NC(=O)[C@H](Cc1ccccc1)NC(=O)c1cnccn1)B(O)O [Bortezomib] (partner 0.002 µM)
The procedure, abridged: as §1

Compound in the assay “Dasatinib + Bortezomib”: Cc1nc(Nc2ncc(C(=O)Nc3c(C)cccc3Cl)s2)cc(N2CCN(CCO)CC2)n1 [Dasatinib] + CC(C)C[C@H](NC(=O)[C@H](Cc1ccccc1)NC(=O)c1cnccn1)B(O)O [Bortezomib] (partner 0.002 µM)
An outline of the steps:
as §1

Turning to NCI-H1395, the relative viability in the assay with ALW-II-49-7 + Pemetrexed (first compound 0.08 µM) turned out to be 0.894; in the assay with ALW-II-49-7 + Pemetrexed (first compound 0.253 µM), 0.984; in the assay with ALW-II-49-7 + Pemetrexed (first compound 0.8 µM) it was 1.18; with ALW-II-49-7 + Pemetrexed (first compound 8 µM) it was 0.621; in the assay with ALW-II-49-7 + Lapatinib (first compound 0.08 µM) it was 0.869; in the assay with ALW-II-49-7 + Lapatinib (first compound 0.253 µM), 1.21. Also, the results for the relative viability in the assay with ALW-II-49-7 + Lapatinib (first compound 0.8 µM), in the assay with ALW-II-49-7 + Lapatinib (first compound 2.53 µM) and in the assay with ALW-II-49-7 + Lapatinib (first compound 8 µM) were 1.05, 0.967 and 0.929, respectively.

Consider NCI-H1648, for which the relative viability worked out at 0.579 in the assay with ALW-II-49-7 + Pemetrexed (first compound 0.08 µM); 0.934 with ALW-II-49-7 + Pemetrexed (first compound 0.253 µM); 0.802 with ALW-II-49-7 + Pemetrexed (first compound 0.8 µM); 0.52 with ALW-II-49-7 + Pemetrexed (first compound 2.53 µM); 0.738 with ALW-II-49-7 + Pemetrexed (first compound 8 µM).

In the case of NCI-H1703, the relative viability in the assay with XMD13-2 + Bortezomib (first compound 0.05 µM) was 0.47; with XMD13-2 + Bortezomib (first compound 0.1581 µM) it was 0.597; with XMD13-2 + Bortezomib (first compound 0.5 µM) it was 0.407; with XMD13-2 + Bortezomib (first compound 1.581 µM), 0.228; with XMD13-2 + Bortezomib (first compound 5 µM), 0.195; with Dasatinib + Bortezomib (first compound 0.005 µM), 0.285. For the same cell line, the relative viability with Dasatinib + Bortezomib (first compound 0.01581 µM) amounted to 0.22; with Dasatinib + Bortezomib (first compound 0.05 µM) it was 0.247; with Dasatinib + Bortezomib (first compound 0.1581 µM) it was 0.18; with Dasatinib + Bortezomib (first compound 0.5 µM), 0.121; with ALW-II-49-7 + Lapatinib (first compound 0.08 µM) it was 1.17; with ALW-II-49-7 + Lapatinib (first compound 0.253 µM) it was 1.14. The relative viability came to 0.906 with ALW-II-49-7 + Lapatinib (first compound 0.8 µM), 0.448 with ALW-II-49-7 + Lapatinib (first compound 2.53 µM) and 0.363 with ALW-II-49-7 + Lapatinib (first compound 8 µM).

Consider NCI-H1793, for which the relative viability was 1.05 with ALW-II-49-7 + Pemetrexed (first compound 0.08 µM); 0.806 with ALW-II-49-7 + Pemetrexed (first compound 0.253 µM); 1.08 with ALW-II-49-7 + Pemetrexed (first compound 0.8 µM); 0.868 with ALW-II-49-7 + Pemetrexed (first compound 2.53 µM); 0.734 in the assay with ALW-II-49-7 + Pemetrexed (first compound 8 µM); 0.811 with ALW-II-49-7 + Lapatinib (first compound 0.08 µM). Moreover, the relative viability in the assay with ALW-II-49-7 + Lapatinib (first compound 0.253 µM) was 0.708; with ALW-II-49-7 + Lapatinib (first compound 0.8 µM), 0.796; with ALW-II-49-7 + Lapatinib (first compound 2.53 µM), 0.787; with ALW-II-49-7 + Lapatinib (first compound 8 µM), 0.988.

On to NCI-H1944, for which the relative viability with ALW-II-49-7 + Pemetrexed (first compound 0.08 µM) worked out at 0.6; with ALW-II-49-7 + Pemetrexed (first compound 0.253 µM), 0.597; with ALW-II-49-7 + Pemetrexed (first compound 0.8 µM), 0.611; with ALW-II-49-7 + Pemetrexed (first compound 2.53 µM) it was 0.582; with ALW-II-49-7 + Pemetrexed (first compound 8 µM) it was 0.537; in the assay with ALW-II-49-7 + Lapatinib (first compound 0.08 µM), 0.82. Also, the relative viability was 0.915 with ALW-II-49-7 + Lapatinib (first compound 0.253 µM), 0.843 with ALW-II-49-7 + Lapatinib (first compound 0.8 µM), 0.889 in the assay with ALW-II-49-7 + Lapatinib (first compound 2.53 µM) and 0.623 with ALW-II-49-7 + Lapatinib (first compound 8 µM).

Turning to NCI-H2170, the relative viability came to 0.283 with ALW-II-49-7 + Pemetrexed (first compound 0.08 µM); 0.275 in the assay with ALW-II-49-7 + Pemetrexed (first compound 0.253 µM); 0.244 with ALW-II-49-7 + Pemetrexed (first compound 0.8 µM); 0.302 with ALW-II-49-7 + Pemetrexed (first compound 2.53 µM); 0.285 in the assay with ALW-II-49-7 + Pemetrexed (first compound 8 µM); 0.313 with ALW-II-49-7 + Lapatinib (first compound 0.08 µM). In addition, the relative viability with ALW-II-49-7 + Lapatinib (first compound 0.253 µM) is 0.284; with ALW-II-49-7 + Lapatinib (first compound 0.8 µM) it was 0.264; with ALW-II-49-7 + Lapatinib (first compound 2.53 µM), 0.302; with ALW-II-49-7 + Lapatinib (first compound 8 µM) it was 0.302.

With NCI-H2342, the relative viability with ALW-II-49-7 + Pemetrexed (first compound 0.08 µM) turned out to be 0.681; with ALW-II-49-7 + Pemetrexed (first compound 0.253 µM), 0.856; with ALW-II-49-7 + Pemetrexed (first compound 0.8 µM), 0.771; with ALW-II-49-7 + Pemetrexed (first compound 2.53 µM) it was 0.791; with ALW-II-49-7 + Pemetrexed (first compound 8 µM), 0.744.

In the case of SK-MES-1, the relative viability with ALW-II-49-7 + Pemetrexed (first compound 0.08 µM) was determined as 0.888; in the assay with ALW-II-49-7 + Pemetrexed (first compound 0.253 µM), 0.964; in the assay with ALW-II-49-7 + Pemetrexed (first compound 0.8 µM) it was 0.916; in the assay with ALW-II-49-7 + Pemetrexed (first compound 2.53 µM) it was 0.867; with ALW-II-49-7 + Pemetrexed (first compound 8 µM) it was 0.686; with ALW-II-49-7 + Lapatinib (first compound 0.08 µM), 0.481. Further, the relative viability worked out at 0.458 with ALW-II-49-7 + Lapatinib (first compound 0.253 µM), 0.477 with ALW-II-49-7 + Lapatinib (first compound 0.8 µM), 0.487 with ALW-II-49-7 + Lapatinib (first compound 2.53 µM) and 0.474 with ALW-II-49-7 + Lapatinib (first compound 8 µM).

For SW 900, the relative viability came to 0.449 with ALW-II-49-7 + Pemetrexed (first compound 0.08 µM), 0.492 in the assay with ALW-II-49-7 + Pemetrexed (first compound 0.253 µM), 0.517 with ALW-II-49-7 + Pemetrexed (first compound 2.53 µM) and 0.316 with ALW-II-49-7 + Pemetrexed (first compound 8 µM).

The values above are taken from the supplement of paper PMC10307832.
